In patent publication US12485191B2, “Radiopharmaceuticals and methods of use thereof” (BOARD OF REGENTS OF THE UNIVERSITY OF NEBRASKA, priority 2017, dated 2025):
Marks after values point to notes of the source that are not given here.

Legend:
[1] = Distribution coefficient (Log D7.4) of the conjugates; assay type: physicochemical; conditions: determined by radiometric analysis; 177Lu-labeled conjugate
Protocol: Distribution Coefficient (Log D7.4) of the Conjugates The distribution coefficient was determined for each ^177Lu-labeled conjugate. In a 1.5 mL centrifuge tube, 0.5 mL of 1-octanol was added to 0.5 mL of PBS (pH 7.4) containing the radiolabeled peptide (500,000 cpm). The solution was vigorously vortexed for 2 minutes at room temperature and subsequently centrifuged to yield two immiscible layers. The radioactivity of the aliquots (100 μL) taken from each layer were quantified by the gamma counter and the Log D7.4 for each conjugates was calculated.

[2] = target: T1, cathepsin B (human Liver) (Homo sapiens, UniProt P07858); experiment: Inhibition constant (Ki) of the compounds to cathepsin B; assay type: biochemical
T1 construct: from tissue; host or cells: human liver
Protocol: Determination of the Km and Vmax of Cathepsin B for Z-Arg-Arg-AMC
The solution of cathepsin B (human Liver) (50 μL, 2 nM) in assay buffer used above was mixed with 50 μL of solution of substrate Z-Arg-Arg-AMC in the assay buffer at different concentrations ([S]) (25 μM, 50 μM, 100 μM, 500 μM and 1 mM). The mixture was incubated at 37° C. and the fluorescence of the liberated aminomethylcoumarin at 460 nM using 355 nm excitation was measured at predetermined time points (0, 2, 4, 6, 8, and 10 minutes). The fluorescence intensity was plotted versus time and the reaction rates (v0) were calculated as the slope of the trend lines obtained by liner regression. Km and maximum reaction rate (Vmax-obs) was determined from the equation v0=Vmax[S]/(Km+[S]) and solved by nonlinear regression using GraphPad Prism 5. All measurements were in biological triplicate.
Determination of the Inhibition Constant (Ki) of the Compounds to Cathepsin B
The cathepsin B (human Liver) in assay buffer (25 μL) was mixed with the conjugate (25 μL) in 96-well plate. After the solution was mixed, the Z-Arg-Arg-AMC in assay buffer (50 μL) was added to the well, yielding a final cathepsin B concentration of 1 nM, conjugate concentration ([C]) of 15 nM or 5 μM, and substrate concentration ([S]) of 25 μM, 50 μM, 100 μM, 500 μM and 1 mM. The mixture was incubated at 37° C. and the fluorescence of the liberated aminomethylcoumarin at 460 nM using 355 nm excitation was measured at predetermined time points (0, 2, 4, 6, 8, and 10 minutes). The fluorescence intensity was plotted versus time with observed reaction rates (v0-obs) calculated as the slope of the trend lines obtained by liner regression. The observed rate constant (Kobs) and observed maximum reaction rate (Vmax-obs) was determined from the equation v0-obs=Vmax-obs [S]/(Kobs+[S]) and solved by nonlinear regression using GraphPad Prism 5. The Ki was calculated from the equation Kobs=Km (1+[C]/Ki). All measurements were in biological triplicate.

HT-29 cells [3] = experiment: HT-29 cell efflux study; assay type: cell-based, human; conditions: at 24 hours
Protocol: The HT-29 Cell Efflux Studies
The ^177Lu radioconjugate was added to a sterilized 1.5 mL microcentrifuge tube containing HT-29 cells ˜1×10^6) suspended in 300 μL of cell culture medium, yielding a final radioactivity concentration of 100,000 cpm/100 μL, and was incubated for 2 hours at 37° C. After the removal of the culture medium, the cells were washed with fresh medium (5×500 μL) followed by the addition of 500 μL of fresh medium for the efflux assay. At 0, 1, 2, 4, 8, and 24 hour time interval, fresh medium (500 μL) was added to the tube to replace the old medium which was harvested for quantitative analysis of the effluxed radioactivity using a gamma counter. The cells were lysed with a 10% aqueous SDS solution at 24 hour to quantify the remaining internalized radioactivity. The effluxed fraction is expressed as a percentage of the total radioactivity added to the tube, which is the sum of the effluxed and internalized fractions obtained from the study.

HT-29 cells [4] = experiment: Intracellular trapping of the radioconjugates in living HT-29 cells (GPC, SDS-PAGE); assay type: cell-based, human; conditions: live HT-29 cells, GPC and SDS-PAGE
Protocol: Intracellular Trapping of the Radioconjugates in Living HT-29 Cells
To the HT-29 cells (1×10^6/well) seeded in 6-well plates was added the radioconjugates (0.74 MBq, 20 μCi) in 1 mL of cell culture medium. The cells were incubated at 37° C. for 4 hours and the medium was removed by vacuum followed washing with PBS (2×2 mL). The cells (˜3×10^6) were trypsinized and combined in microcentrifuge. The RIPA buffer (100 μL) containing Halttmprotease inhibitor (100×, 1 μL) was added to the cell pellet and vigorously vortexed for 1 minute. The suspension was incubated on ice for 15 minutes and centrifuged to remove the pellet. The supernatant (80 μL) was equally divided into two portions. The first portion (40 μL) was directly analyzed by radioactive-GPC with a flow rate of 0.6 mL/minute (40% ACN in PBS containing 0.1% sodium azide). The second portion (40 μL) of the cell lysate was mixed with Novex Tris-Glycine SDS sample buffer (2×) (40 μL) and incubated for another 15 minutes. The mixture (30 μL) was loaded onto a Novex 16% tris-glycine gel and analyzed by SDS-PAGE at 110 V for 90 minutes. The autoradiograph of the SDS-PAGE was performed as described above.

HT-29 xenograft tumors [5] = experiment: Biodistribution study in HT-29 xenograft mouse model; assay type: in vivo, mice; conditions: HT-29 xenograft, by 24 hours
Protocol: Female SCID mice (5 weeks of age) received subcutaneous injections of HT-29 cells (5×10^6) suspended in Matrigel® into the flanks. When the tumor size reached 80 mm^3 (two weeks after injection), the mice were randomized into three groups and intravenously injected with 10 μCi (0.37 MBq) of the purified ^177Lu labeled conjugates via tail vein. The mice were sacrificed and the tissues were excised at 4, 24, and 72 hours post-injection time points. The blood, tumor, and excised tissues were weighed. The radioactivity for each sample was measured using a gamma counter. The percentage injected dose per gram (% ID/g) and the radioactivity ratios between tumor and non-targeted tissues were calculated.

HT-29 xenograft tumors [6] = experiment: Tissue adduct formation of the radioconjugates (SDS-PAGE, centrifugal filtration); assay type: in vivo, mice; conditions: autoradiographic SDS-PAGE, 24 hours post-injection
Protocol: The radioconjugates (800 μCi/mouse) were intravenously injected to the tumor bearing mice. The mice were sacrificed and the tumor, liver, and kidney were excised at 24 and 72 hours post-injection time points. The tumor and organs were homogenized in RIPA buffer (50 mg/100 μL) containing Halt™ protease inhibitor (100×, 1 μL) on ice and centrifuged to remove the pellet. An aliquot (20 μL) of the supernatant of the sample at 24 hours was mixed with Novex Tris-Glycine SDS sample buffer (2×, 20 μL) and incubated for further 10 minutes. The mixtures (20 μL) were loaded onto a Novex 16% tris-glycine gel and analyzed by SDS-PAGE at 110 V for 90 minutes. The autoradiograph of the SDS-PAGE was performed according to the same method in section 3.8.1. On the other hand, the aliquots (100 μL) of supernatants of all the tumor samples at 24 hours and 72 hours were individually centrifuged with Pierce™ protein concentrators (MWCO=10 kDa) to separate the low molecular weight radioactivity. The radioactivity in each fraction was quantified using a gamma counter to calculate the percentage of the cysteine proteases trapped radioconjugate in the total counts.

HT-29 xenograft tumors [7] = system: HT-29 xenograft tumors; parameters: species or system mice; conditions: mouse
Protocol: Evaluation of Cysteine Proteases Trapping of the Cy 5-Labeled Conjugates
The Cy 5-labeled conjugates (40 nmol) were intravenously injected to the tumor bearing mice. The mice were sacrificed at 24 post-injection time points, and the heart, lung, liver, spleen, pancreas, kidney, intestine, brain, and tumor were excised and imaged using an IVIS spectrum system. The tumor and organs were homogenized in RIPA buffer (50 mg/100 μL) containing Halt™ protease inhibitor (100×, 1 μL) on ice and centrifuged to remove the pellet. An aliquot (18 μL) of the supernatant of the sample was added in NuPAGE® sample reducing reagent (10×, 2 μL) and denatured at 80° C. for 2 minutes. The sample was mixed with Novex Tris-Glycine S DS sample buffer (2×, 20 μL) and incubated for further 10 minutes. The mixtures (20 μL) were loaded onto a Novex 16% tris-glycine gel and analyzed by SDS-PAGE at 110 V for 90 minutes, followed by electro transferring onto PVDF membranes. The PVDF membranes were blocked by animal-free blocking buffer for 1 hour at room temperature and then were incubated with Cathepsin B (D1C7Y) XP® Rabbit mAb at 4° C. for overnight. Membranes was then incubated with Goat anti-Rabbit IgG (H+L) secondary antibody at room temperature for 1 hour and visualized using Typhoon FLA 9500.

CatL = CatL (Homo sapiens, UniProt P07711); experiment: CatL inhibition constant; assay type: biochemical
CatB = CatB (Homo sapiens, UniProt P07858); experiment: CatB inhibition of GRPR-targeted agents; assay type: biochemical
Protocol: The Inhibition of Cathepsin B Activity by the Conjugates The phosphate buffer (0.1 M, pH=5.8) containing EDTA (1 mM), DTT (2.7 mM), and Brij®35 (0.03%) was prepared before the assay. […] The solution of cathepsin B (human Liver) in assay buffer (50 μL, 0.544 nM) was added to the mixture which was further incubated at 37° C. for 20 minutes. The fluorescence of the liberated aminomethylcoumarin at 460 nM using 355 nm excitation was measured and the IC50 of the cathepsin B inhibition versus the samples without the inhibitor was determined by nonlinear regression using GraphPad Prism 5.

GRPR = GRPR (Homo sapiens, UniProt P30550); experiment: GRPR affinity of GRPR-targeted agents; assay type: binding
PC-3 tumor = conditions: mouse, in vivo

GRPR, sequence (P30550 whole entry): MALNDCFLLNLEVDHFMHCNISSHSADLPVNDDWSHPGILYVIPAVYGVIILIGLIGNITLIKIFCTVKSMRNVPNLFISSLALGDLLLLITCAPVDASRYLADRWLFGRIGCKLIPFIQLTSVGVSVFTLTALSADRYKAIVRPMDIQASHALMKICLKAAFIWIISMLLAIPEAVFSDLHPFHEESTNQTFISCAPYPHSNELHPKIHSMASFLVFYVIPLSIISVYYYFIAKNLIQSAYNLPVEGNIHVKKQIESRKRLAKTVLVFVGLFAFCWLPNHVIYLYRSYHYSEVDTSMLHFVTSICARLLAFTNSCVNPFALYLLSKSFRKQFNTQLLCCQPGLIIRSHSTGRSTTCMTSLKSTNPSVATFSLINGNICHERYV
CatL, sequence (P07711 114-333): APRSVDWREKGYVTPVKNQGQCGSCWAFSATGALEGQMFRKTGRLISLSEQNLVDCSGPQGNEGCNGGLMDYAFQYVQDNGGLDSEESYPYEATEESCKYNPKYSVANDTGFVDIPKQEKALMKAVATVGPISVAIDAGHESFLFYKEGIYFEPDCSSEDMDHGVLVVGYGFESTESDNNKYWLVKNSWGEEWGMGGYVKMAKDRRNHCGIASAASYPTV

For Cc1cc(O)cc(C)c1C[C@H](NC(=O)[C@@H]1CCCN1C(=O)[C@H](CCCNC(=N)N)NC(=O)[C@H](CCCNC(=N)N)N(C)C(=O)[C@@H]1CCCN1C(=O)[C@H](CCCCN)NC(=O)[C@@H](CO)NC(=O)[C@@H](CO)NC(=O)[C@@H](CO)NC(=O)[C@H](Cc1cn(CC(=O)N[C@H](CO)C(=O)N[C@H](CO)C(=O)N[C@H](CO)C(=O)NCC(=O)NCCCC[C@H](NC(=O)[C@H](Cc2ccccc2)NC(=O)OCc2ccccc2)C(=O)NCCc2ccccc2)nn1)NC(=O)CN1CCN(CC(=O)O)CCN(CC(=O)O)CCN(CC(=O)O)CC1)C(=O)N[C@H](C(=O)N[C@@H](CC(C)C)C(=O)O)C(C)(C)C [Compound 3b], which logD7.4 [1] is on record?
The logD7.4 was −2.01 ± 0.06^b.

And the “CatB K1” value [2]?
Its value is “ni”.

What about the “Ki and inhibition IC50 to CatB (in words)” value [2] of the same compound?
The value was “did not demonstrate any inhibition”.

What about the efflux (HT-29 cells [3]) of the same compound?
Its efflux is 69%.

And the “intracellular adduct formation (in words)” value (HT-29 cells [4])?
The value was “no adduct formation”.

And the “decrease in tumor retention” value (HT-29 xenograft tumors [5])?
Its value is 40%.

And the “in vivo adduct formation (in words)” value (HT-29 xenograft tumors [6])?
Its value is “no signs of adduct formation”.

For Cc1cc(C)c(C(=O)OCC(=O)[C@H](CCCCNC(=O)CNC(=O)[C@@H](CO)NC(=O)[C@@H](CO)NC(=O)[C@@H](CO)NC(=O)Cn2cc(C[C@H](NC(=O)CCCCC[N+]3=C(/C=C/C=C/C=C4/N(C)c5ccccc5C4(C)C)C(C)(C)c4ccccc43)C(=O)N[C@H](CO)C(=O)N[C@H](CO)C(=O)N[C@H](CO)C(=O)N[C@@H](CCCCN)C(=O)N3CCC[C@H]3C(=O)N(C)[C@@H](CCCNC(=N)N)C(=O)N[C@@H](CCCNC(=N)N)C(=O)N3CCC[C@H]3C(=O)N[C@@H](Cc3c(C)cc(O)cc3C)C(=O)N[C@H](C(=O)N[C@@H](CC(C)C)C(=O)O)C(C)(C)C)nn2)NC(=O)[C@H](Cc2ccccc2)NC(=O)OCc2ccccc2)c(C)c1 [Compound 4a], which “tumor retention by ex vivo imaging (in words)” value (HT-29 xenograft tumors [7]) is on record?
Its value is “greater than its counterpart 4b”.

For Cc1cc(O)cc(C)c1C[C@H](NC(=O)[C@@H]1CCCN1C(=O)[C@H](CCCNC(=N)N)NC(=O)[C@H](CCCNC(=N)N)N(C)C(=O)[C@@H]1CCCN1C(=O)[C@H](CCCCN)NC(=O)[C@@H](CO)NC(=O)[C@@H](CO)NC(=O)[C@@H](CO)NC(=O)[C@H](Cc1cn(CCNC(=O)[C@H](CCCNC(=N)N)NC(=O)[C@H](CC(C)C)NC(=O)CCC(=O)O)nn1)NC(=O)CN1CCN(CC(=O)O)CCN(CC(=O)O)CCN(CC(=O)O)CC1)C(=O)N[C@H](C(=O)N[C@@H](CC(C)C)C(=O)O)C(C)(C)C [Ec], which “CatB Ki” value ([2]; Table 3) is on record?
The value was “ni^b”.

What about the “CatL Ki” value (CatL) of the same compound?
The value was “ni^b”.

Which results are given for CSCC[C@H](NC(=O)[C@H](CC(C)C)NC(=O)[C@H](Cc1c[nH]cn1)NC(=O)CNC(=O)[C@@H](NC(=O)[C@H](C)NC(=O)[C@H](Cc1c[nH]c2ccccc12)NC(=O)[C@H](CCC(N)=O)NC(=O)CCOCCOCCOCCOCCNC(=O)[C@H](Cc1cn(CCNC(=O)[C@H](CCCNC(=N)N)NC(=O)[C@H](CC(C)C)NC(=O)CCC(=O)O)nn1)NC(=O)CN1CCN(CC(=O)O)CCN(CC(=O)O)CCN(CC(=O)O)CC1)C(C)C)C(N)=O [^177Lu-C-AG, metal not drawn]?
IC50 (CatB): > 200000 nM; IC50 (GRPR): 16.5 ± 3.3 nM; tumor retention (PC-3 tumor): 32%
